Test results taken from PMC9002265, “A New Series of Strigolactone Analogs Derived From Cinnamic Acids as Germination Inducers for Root Parasitic Plants” (Frontiers in Plant Science, 2022).

How the values were obtained:
[1] = Time course monitoring of degradation in hydroponic culture; assay type: physicochemical; details: 1 μM, within 1 week, pH 5.7, LC-MS/MS
Experimental: t-CASL1, c-CASL1, PPASL, and GR5 were separately added to 15 ml tubes containing hydroponic culture. The final concentration of the test compounds is 1 μM and acetone was adjusted to 0.01% (v/v). These solutions were incubated under the same conditions as branching assay. After incubation for 0, 5, 24 72, or 168 h, 495 μl of hydroponic culture containing test compounds was collected and 5 μl of NAA solution (10 μM) was added as an internal standard. The solution was extracted with ethyl acetate. The ethyl acetate phase was dried up under the nitrogen gas and dissolved in acetonitrile. These samples were subjected to LC–MS/MS analysis equipped with reverse-phase column (CORTECS UPLC Phenyl 1.6 μm, ϕ2.1 × 75 mm; Waters). Each peak area of test chemicals and internal standard was calculated, and the remaining percentage of teste chemicals was calculated. At the same time, the degradation products of test compounds (CA or PPA) were also analyzed. Detailed information about the analytical condition was described in Supplementary Table 1.

AtD14 = target: T1, AtD14 (Arabidopsis thaliana, UniProt Q9SQR3); assay: Hydrolysis assay with recombinant AtD14; assay type: biochemical; details: 10 μM substrate, 30°C, 60 min
T1 construct: The cDNA of AtD14 was introduced into pMALHis vector; MBP; His6; made in house; host or cells: E. coli BL21 (DE3)
T1 sequence (Q9SQR3 1-267): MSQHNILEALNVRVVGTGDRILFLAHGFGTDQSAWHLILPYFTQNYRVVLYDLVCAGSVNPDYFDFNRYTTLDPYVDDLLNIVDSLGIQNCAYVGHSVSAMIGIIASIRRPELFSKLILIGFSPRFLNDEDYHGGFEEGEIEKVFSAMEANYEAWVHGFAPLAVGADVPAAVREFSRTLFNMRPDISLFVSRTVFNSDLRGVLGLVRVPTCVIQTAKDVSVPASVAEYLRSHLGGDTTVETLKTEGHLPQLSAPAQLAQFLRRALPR
Experimental: The cDNA of AtD14 was introduced into pMALHis vector that has both MBP-tag and His6-tag. The vector was transformed in to E. coli BL21 (DE3) and the cell was precultured in LB medium containing 50 μg/ml ampicillin. Overnight cultures (10 ml) were added to fresh LB medium (1 L) containing 50 μg/ml ampicillin and it was cultured at 37°C. After OD600 reached to 0.8, the cultures were cooled at 16°C for 1 h, and then 0.1 mM IPTG was added. The culture was further incubated at 16°C for 20 h. The culture medium was centrifuged at 3,700 g and the pellet was stored at −20°C until use. The pellet was resuspended and sonicated in lysis buffer (50 mM Tris buffer (pH 8.0) containing 500 mM NaCl, 10 mM 2-mercaptoethanol, and 10% glycerol). The supernatant was purified by Ni Sepharose TM 6 Fast Flow (500 μl, Cytiva) After washing with the washing buffer (50 mM Tris buffer (pH 8.0) containing 500 mM NaCl and 20 mM imidazole), The bound protein was eluted with elution buffer (50 mM Tris buffer (pH 8.0) containing 500 mM NaCl and 200 mM imidazole). The eluate was concentrated using VIVASPIN Turbo 15 (Sartorius), and the concentration was adjusted to 5 mg/ml. The purified protein was aliquoted to the appropriate volume, immediately frozen in liquid nitrogen, and stored at −80°C until use.
Hydrolysis assays were carried out at 30°C for 60 min in 100 μl of a reaction buffer containing 0.13 pmol recombinant ShHTL7 or AtD14, 10 μM of substrate in 50 mM Phosphate-Na buffer (pH 7.0) containing 2% acetone. The enzyme reaction was stopped by addition of 100 μl of acetonitrile containing 1-naphtaleneacetic acid (NAA; 0.5 ng/μl) as an internal standard. After centrifuged at 13,000 rpm for 5 min, each sample was subjected to LC–MS/MS analysis equipped with reverse-phase column (CORTECS UPLC Phenyl 1.6 μm, ϕ2.1 × 75 mm; Waters). The concentration of remaining substrate and reaction product was calculated by using NAA as an internal standard. Detailed information about the analytical condition is described in Supplementary Table 1.

CC1=CC(OC(=O)/C=C\c2ccccc2)OC1=O (centres unmarked) [c-CASL1]
loss (non-enzymatic degradation) in hydroponic culture medium [1]: ~40%
hydrolysis by AtD14 (AtD14): can hydrolyze
